From article PMC9202104 (BMC Biology, 2022)

Legend:
DENV-3-V1043 = experiment: Plaque assay, inhibition of DENV-3 infection in LLC-MK2 cells; type: cell-based; conditions: Dengue virus, DENV3
[1] = molecular target: T1, ZIKV full-length envelope (E) protein (Zika virus, UniProt Q32ZE1); experiment: ELISA binding to ZIKV full-length E protein
T1 construct: ZIKV full-length E (Aviva Systems Biology, San Diego, CA, USA); purchased Aviva Systems Biology
Experimental: (§1) Briefly, ELISA plates were coated with each protein (1 μg/ml) at 4°C overnight and were then incubated with blocking buffer containing 2% fat-free milk in PBST (0.05% Tween-20) at 37°C for 2 h. The above compounds, or DMSO control, at serial dilutions were added to the plates and incubated at 37°C for 2 h. After three washes using PBST, the plates were incubated at 37°C for 2 h with ZIKV EDIII-specific human mAb ZKA64-LALA (0.5 μg/ml) (for binding to ZIKV full-length E or EDIII protein), or ZIKV NS2B-NS3-specific mouse sera (for binding to NS2B-NS3 protein). After further washes, the plates were incubated with horseradish peroxidase (HRP)-conjugated anti-human IgG-Fab (1:3,000, Abcam, Cambridge, MS, USA) or anti-mouse IgG (1:3,000, Sigma) antibody at 37°C for 1 h. The plates were incubated with substrate TMB (3,3′,5,5′-tetramethylbenzidine) for 1 min, and the reaction was stopped by addition of 1 N H2SO4. Absorbance at 450 nm (A450 values) was measured by an ELISA microplate reader. Percent binding (% binding) to the E, EDIII, or NS2B-NS3 protein was calculated in the presence or absence of serially diluted compounds using the formula ((1-(E/EDIII/NS2B-NS3-compound)/(E/EDIII/NS2B-NS3))×100), based on which EC50 was calculated using the CalcuSyn program.

[2] = Cytotoxicity, Cell Counting Kit-8, Vero E6 cells; type: cell-based; conditions: African green monkey, CC50 Vero E6
Experimental: (§2) Briefly, compounds at 2-fold serial dilutions were added to the respective cells (2.0×10^4/well) pre-seeded in 96-well plates. The cells were cultured at 37°C in the presence of 5% CO2 for 3 days, […] incubated with CCK8 solution, followed by measurement of absorbance at 450 nm (A450 value), using a microplate reader (Infinite F200PRO, Tecan, Morrisville, NC, USA). CC50 of compounds was calculated using the CalcuSyn program.

Vero E6 cells = experiment: Cytotoxicity, Cell Counting Kit-8, Vero E6 cells; type: cell-based; conditions: African green monkey, 3 days
Experimental: as §2

[3] = test system: ZIKV human strain R103451; experiment: Plaque assay, inhibition of ZIKV infection (strain R103451); type: cell-based; conditions: Zika virus, Vero C1008; plaque assay, Vero E6 cells, human strain; read-out: IC50 R103451
Experimental: (§3) After removal of the unbound compounds by centrifugation (after addition of 3% PEG-6000), ZIKV was incubated with Vero E6 cells in 24-well plates at 37°C for 1 h. The cells were then washed with PBS, overlaid with DMEM containing 1% carboxymethyl cellulose and 2% FBS, and cultured at 37°C for 4–5 days, followed by being stained with 0.5% crystal violet. […] Plaques in each well were calculated, and IC50 of compounds for each compound was calculated using the CalcuSyn computer program.

ZIKV NS2B-NS3 protein = molecular target: T2, ZIKV NS2B-NS3 protein (Zika virus, UniProt Q32ZE1); experiment: ELISA binding to ZIKV NS2B-NS3 protein
T2 construct: fused with the genes encoding NS3 protein (residues 1-185) through a linker (Gly4-Thr-Gly4); His6 (C); made in house; host or cells: E. coli
Experimental: as §1

[4] = test system: ZIKV human strain IbH 30656; experiment: Plaque assay, inhibition of ZIKV infection (strain IbH 30656); type: cell-based; conditions: Zika virus, Vero C1008; plaque assay, Vero E6 cells, human strain; read-out: IC50 IbH 30656
Experimental: as §3

ZIKV EDIII protein = molecular target: T3, ZIKV EDIII protein (Zika virus, UniProt A0A024B7W1); experiment: ELISA binding to ZIKV EDIII protein
T3 construct: EDIII (residues 298-409 in E protein containing a C-terminal human Fc tag); human Fc (C)
Experimental: as §1

DENV-2 human strain V594 = experiment: DENV-2 challenge in Ifnar1−/− mice, flow cytometry titers; type: in vivo; conditions: 20 mg/kg i.p., 3 dpi
Experimental: Three days after infection, sera and tissues, including the brain, kidney, and heart, were collected and assessed for DENV infection using a flow cytometry assay, as described below. Tissues were freshly homogenized with cold culture medium (EMEM + 2% FBS) and centrifuged at 4°C and 2000 g for 10 min. Serially diluted tissue supernatants and sera were added to C6/36 cells, as described below. DENV titers in tissues or sera were assessed from ~20 mg of tissue samples, or 25 μl of sera, and used for subsequent flow cytometry analysis.
Flow cytometry assay was carried out to analyze DENV-2 titers in the supernatants of homogenized tissues and sera from DENV-2-infected mice collected above. Briefly, homogenized tissue supernatants or sera were added to C6/36 cells (5×10^5 cells/well) pre-seeded in 24-well plates which the culture medium was removed, and the cells were incubated for 1 h (28°C, 5% CO2). After incubation, the cells were washed with PBS, incubated with EMEM containing 2% FBS, and then cultured for 3 days as described above. After further removal of medium, the cells were digested, washed with PBS, and resuspended in FIX/PERM solution (Tonbo Biosciences, San Diego, CA, USA), followed by incubation at 4°C for 1 h in the dark. The cells were then sequentially incubated with mouse anti-flavivirus mAb 4G2 (2 μg/ml) at 37°C for 1 h and FITC-labeled anti-mouse IgG (0.5 mg/ml, BioLegend, San Diego, CA, USA) at 37°C for 30 min, followed by analysis using a FACScan flow cytometer and Summit software. Viral titers (infectious units/ml or infectious units/g) were calculated using the formula ((% of infected cells)×(total number of cells)×(dilution factor)/(amount of inoculum added to cells)).

[5] = test system: ZIKV mosquito strain MEX 2-81; experiment: Plaque assay, inhibition of ZIKV infection (strain MEX 2-81); type: cell-based; conditions: Zika virus, Vero C1008; plaque assay, Vero E6 cells, mosquito strain; read-out: IC50 MEX 2-81
Experimental: as §3

[6] = C6/36 cells, flow cytometry, representative image

T1 sequence (Q32ZE1 291-790): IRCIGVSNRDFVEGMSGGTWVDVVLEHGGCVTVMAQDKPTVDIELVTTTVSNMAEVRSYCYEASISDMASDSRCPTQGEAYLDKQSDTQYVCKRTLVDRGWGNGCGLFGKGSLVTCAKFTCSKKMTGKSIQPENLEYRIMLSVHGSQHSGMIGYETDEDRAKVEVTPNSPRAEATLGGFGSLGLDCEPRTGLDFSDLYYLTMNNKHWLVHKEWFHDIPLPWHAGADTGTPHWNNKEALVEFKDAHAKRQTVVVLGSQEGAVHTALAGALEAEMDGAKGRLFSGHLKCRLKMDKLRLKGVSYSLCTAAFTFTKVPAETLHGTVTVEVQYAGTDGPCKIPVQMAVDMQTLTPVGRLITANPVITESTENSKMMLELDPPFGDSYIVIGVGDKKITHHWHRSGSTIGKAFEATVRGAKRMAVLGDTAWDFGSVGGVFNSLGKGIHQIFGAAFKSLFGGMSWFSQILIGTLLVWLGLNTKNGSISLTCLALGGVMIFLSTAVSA
T2 sequence (Q32ZE1 1499-1683, added parts left off, change not shown): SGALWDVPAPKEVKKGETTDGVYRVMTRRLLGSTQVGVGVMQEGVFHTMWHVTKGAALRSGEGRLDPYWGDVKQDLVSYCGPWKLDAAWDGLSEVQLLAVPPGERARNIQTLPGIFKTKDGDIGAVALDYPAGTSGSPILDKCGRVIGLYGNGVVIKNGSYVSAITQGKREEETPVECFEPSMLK
T3 sequence (A0A024B7W1 588-699): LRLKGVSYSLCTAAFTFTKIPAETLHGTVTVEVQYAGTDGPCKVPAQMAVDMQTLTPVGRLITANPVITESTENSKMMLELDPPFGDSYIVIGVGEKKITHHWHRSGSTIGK

SMILES: Cc1cc2c(C(C)C)c(O)c(O)c(/C=N/n3c(=O)[nH][nH]c3=O)c2c(O)c1-c1c(C)cc2c(C(C)C)c(O)c(O)c(/C=N/n3c(=O)[nH][nH]c3=O)c2c1O [ST087010]
- IC50 (DENV-3-V1043): 3.33 ± 0.08 µM
- EC50 [1]: 6.47 µM
- CC50 at 3 days [2]: 49.6 µM
- CC50 (Vero E6 cells): 49.6 ± 1.83 µM
- IC50 [3]: 3.6 µM
- EC50 (ZIKV NS2B-NS3 protein): 21.9 µM
- IC50 [4]: 2.9 µM
- EC50 (ZIKV EDIII protein): 6.13 µM
- Numbers of infected cells (viral titers) in the brain, kidney, heart, and sera (DENV-2 human strain V594; DENV-2 V594 2×10^6 PFU, compared to gossypol and DMSO): significantly reduced
- DENV-2 in brain, percentage of infected cells (DENV-2 human strain V594; [6]): 1.1%
- DENV-2 in heart, percentage of infected cells (DENV-2 human strain V594; [6]): 1.0%
- DENV-2 in kidney, percentage of infected cells (DENV-2 human strain V594; [6]): 3.1%
- DENV-2 in sera, percentage of infected cells (DENV-2 human strain V594; [6]): 1.3%
- IC50 [5]: 2.9 µM
